Results reported in US9023844B2, “Heterocyclylpyri (mi) dinylpyrazole as fungicidals” (Bayer Intellectual Property GmbH, priority 2011, dated 2015).
Where two headings read alike, the source gives them in different places.

Assay: Determination of log P values by HPLC on a reverse phase column (C18), EEC-Directive 79/831 Annex V.A8 (Methods A, B, C)
Type: physicochemical
Conditions: for chromatographic logP: reverse phase C18 HPLC column
Protocol: (§1) Note on the determination of the log P values and mass detection: The stated log P values were determined in accordance with EEC-Directive 79/831 Annex V.A8 by HPLC (High Performance Liquid Chromatography) on a reverse phase column (C18). Agilent 1100 LC system; 50*4.6 Zorbax Eclipse Plus C18 1.8 micron; eluent A: acetonitrile (0.1% formic acid); eluent B: water (0.09% formic acid); linear gradient from 10% acetonitrile to 95% acetonitrile in 4.25 mins, then 95% acetonitrile for a further 1.25 mins; oven temperature 55° C.; flow rate: 2.0 mL/min. The mass detection was effected with an Agilend MSD system.
as §1, with “HP1100;” for “Agilent 1100 LC system;”, “(0.08%” for “(0.09%”, “5%” for “10%”, “1.70 min,” for “4.25 mins,”, “1.00 min;” for “1.25 mins;”, “the Micronass ZQ2000 mass detector from Waters.” for “an Agilend MSD system.”
Note on the determination of the log P values and mass detection: The stated log P values were determined in accordance with EEC-Directive 79/831 Annex V.A8 by UPLC (Ultra Performance Liquid Chromatography) on a reverse phase column (C18). HP1100; 50*2.1 Zorbax Eclipse Plus C18 1.8 micron; eluent A: acetonitrile (0.09% formic acid); eluent B: water (0.1% formic acid); linear gradient from 10% A to 95% A in 3.25 min; oven temperature 40° C.; flow rate: 0.8 mL/min. The mass detection was effected with the LCT Premier or SQD mass detector from Waters.

[1] = pH 2.3, intermediates of formula [II], HPLC, reverse phase C18, read-out: LogP (pH 2.3)
[2] = pH 2.7, values in the synthesis examples, HPLC, reverse phase C18, read-out: log P (pH 2.7)
[3] = pH 2.3, intermediates of formula [IV] and [XXXVII], HPLC, reverse phase C18, read-out: LogP (pH 2.3)
[4] = Method C (HPLC, reverse phase C18)
[5] = Method B (HPLC, reverse phase C18)
[6] = pH 2.3, intermediates of formula [VI], HPLC, reverse phase C18, read-out: LogP (pH 2.3)
[7] = Method C (HPLC, reverse phase C18), read-out: LogP

Row | SMILES | chromatographic logP [2] | LogP [5] | other results
1 | Nc1cc(-c2c(-c3ccc(F)cc3F)nn3c2OCCC3)ccn1 [[II-3], 4-[2-(2,4-difluorophenyl)-6,7-dihydro-5H-pyrazolo[5,1-b][1,3]oxazin-3-yl]pyridin-2-amine] | 1.01 | – | chromatographic logP [1]: 1.01
2 | C[Si]1(C)COc2c(Br)c(-c3cccs3)nn2C1 [[IV-12], 8-bromo-3,3-dimethyl-7-(2-thienyl)-3,4-dihydro-2H-pyrazolo[5,1-b][1,3,5]oxazasiline] | 3.58 | – | chromatographic logP [3]: 3.58
3 | CC1(C)COc2c(Br)c(-c3ccc(F)cc3)nn2C1 [[IV-10], 3-bromo-2-(4-fluorophenyl)-6,6-dimethyl-6,7-dihydro-5H-pyrazolo[5,1-b][1,3]oxazine] | 3.63 | – | chromatographic logP [3]: 3.63
4 | CC1(C)COc2c(-c3ccnc(NC(=O)C4CC4)c3)c(-c3ccc(F)cc3)nn2C1 [Example 108] | – | – | LogP [4]: 2.08
5 | CC1(C(=O)Nc2cc(-c3c(-c4ccc(F)cc4)nn4c3OCCC4)ccn2)CCCC1 [Example 117] | – | 2.23 | –
6 | CC1(C(=O)Nc2cc(-c3c(-c4ccc(F)cc4)nn4c3OCCC4)ccn2)CC1 [Example 98] | – | 1.79 | –
7 | Fc1ccc(-c2cc3n(n2)CCCO3)cc1 [[VI-2], 2-(4-fluorophenyl)-6,7-dihydro-5H-pyrazolo[5,1-b][1,3]oxazine] | 2.18 | – | chromatographic logP [6]: 2.18
8 | CCC(=O)Nc1cc(-c2c(-c3ccc(F)cc3)nn3c2N(C(=O)CC)CCC3)ccn1 [Example 91] | – | – | LogP [4]: 1.62
9 | C[C@@H]1C[C@H](C)n2nc(-c3ccc(F)cc3)c(Br)c2O1 (racemic) [[IV-9b], rac-cis-3-bromo-2-(4-fluorophenyl)-5,7-dimethyl-6,7-dihydro-5H-pyrazolo[5,1-b][1,3]oxazine] | 3.68 | – | chromatographic logP [3]: 3.68
10 | Nc1cc(-c2c(-c3ccccc3)nn3c2NCCC3)ccn1 [[II-b-1], 4-(2-Phenyl-4,5,6,7-tetrahydropyrazolo[1,5-a]pyrimidin-3-yl)pyridin-2-amine] | 1.05 | – | chromatographic logP [1]: 1.05
11 | O=C(CC1CCCOC1)Nc1cc(-c2c(-c3ccc(F)cc3)nn3c2OCCC3)ccn1 (centres unmarked) [Example 124] | – | 1.57 | –
12 | CC(C)(F)C(=O)Nc1cc(-c2c(-c3ccc(F)cc3)nn3c2OCCC3)ccn1 [Example 115] | – | 2.38 | –
13 | CCN1CCCn2nc(-c3ccc(F)cc3)c(-c3ccnc(NCc4ccccc4)c3)c21 [Example 97] | – | – | LogP [4]: 1.86
14 | CC(=O)Nc1cc(-c2c(-c3ccc(F)cc3)nn3cccnc23)ccn1 [Example 60, N-{4-[2-(4-Fluorophenyl)pyrazolo[1,5-a]pyrimidin-3-yl]pyridin-2-yl}acetamide] | 1.47 | – | chromatographic logP [7]: 1.47
15 | CC(C)[C@H](NC=O)C(=O)Nc1cc(-c2c(-c3ccc(F)cc3)nn3c2OCCC3)ccn1 [Example 138] | – | 1.6 | –
16 | Cc1cc(C(=O)Nc2cc(-c3c(-c4ccc(F)cc4)nn4c3OCCC4)ccn2)no1 [Example 134] | – | 2.53 | –
17 | C[Si]1(C)COc2cc(-c3ccc(F)cc3)nn2C1 [[VI-5], 7-(4-fluorophenyl)-3,3-dimethyl-3,4-dihydro-2H-pyrazolo[5,1-b][1,3,5]oxazasiline] | 3.11 | – | chromatographic logP [6]: 3.11
18 | CC1(C#N)COc2cc(-c3ccc(F)cc3)nn2C1 (centres unmarked) [[VI-11], 2-(4-fluorophenyl)-6-methyl-6,7-dihydro-5H-pyrazolo[5,1-b][1,3]oxazine-6-carbonitrile] | 2.39 | – | chromatographic logP [6]: 2.39
19 | CC(C)C(=O)Nc1cc(-c2c(-c3ccc(F)cc3)nn3c2OCC(C)(C)C3)ccn1 [Example 111] | – | – | LogP [4]: 2.23
20 | CCC(C)CC(C)C(=O)Nc1cc(-c2c(-c3ccc(F)cc3)nn3c2OCCC3)ccn1 (centres unmarked) [Example 127] | – | 2.65 | –
21 | CCC(=O)Nc1cc(-c2c(-c3ccccc3)nn3c2N(C(=O)CC)CCC3)ccn1 [Example 78] | – | – | LogP [4]: 1.45
22 | CC(C)=NOCC(=O)Nc1cc(-c2c(-c3ccc(F)cc3)nn3c2OCCC3)ccn1 [Example 122] | – | 2.13 | –
23 | CC(=O)N1CCCn2nc(-c3ccccc3)c(-c3ccnc(N(C(C)=O)C(C)=O)c3)c21 [Example 58, N-acetyl-N-[4-(4-acetyl-2-phenyl-4,5,6,7-tetrahydropyrazolo[1,5-a]pyrimidin-3-yl)pyridin-2-yl]acetamide] | 1.72 | – | chromatographic logP [7]: 1.72
24 | O=C(Cn1cncn1)Nc1cc(-c2c(-c3ccc(F)cc3)nn3c2OCCC3)ccn1 [Example 137] | – | 1.32 | –

Row | SMILES | chromatographic logP [2] | LogP [5] | other results
25 | CC(=O)CCCC(=O)Nc1cc(-c2c(-c3ccc(F)cc3)nn3c2OCCC3)ccn1 [Example 99] | – | 1.35 | –
26 | C[Si]1(C)COc2c(Br)c(-c3ccc(F)cc3)nn2C1 [[IV-5], 8-bromo-7-(4-fluorophenyl)-3,3-dimethyl-3,4-dihydro-2H-pyrazolo[5,1-b][1,3,5]oxazasiline] | 3.83 | – | chromatographic logP [3]: 3.83
27 | O=C(Cn1cccn1)Nc1cc(-c2c(-c3ccc(F)cc3)nn3c2OCCC3)ccn1 [Example 123] | – | 1.63 | –
28 | O=C(CC1=CCCCC1)Nc1cc(-c2c(-c3ccc(F)cc3)nn3c2OCCC3)ccn1 [Example 139] | – | 2.46 | –
29 | O=C(CCn1ccnn1)Nc1cc(-c2c(-c3ccc(F)cc3)nn3c2OCCC3)ccn1 [Example 133] | – | 1.23 | –
30 | Nc1cc(-c2c(-c3ccccc3)nn3cccnc23)ccn1 [[II-a-1], 4-(2-Phenylpyrazolo[1,5-a]pyrimidin-3-yl)pyridin-2-amine] | 0.98 | – | chromatographic logP [1]: 0.98
31 | Fc1ccc(-c2nn3c(c2Br)OCC(F)(F)C3)cc1 [[IV-7], 3-bromo-6,6-difluoro-2-(4-fluorophenyl)-6,7-dihydro-5H-pyrazolo[5,1-b][1,3]oxazine] | 3.3 | – | chromatographic logP [3]: 3.3
32 | O=C(Nc1cc(-c2c(-c3ccc(F)cc3)nn3c2OCCC3)ccn1)C1CC1(F)Cl (centres unmarked) [Example 116] | – | 2.13 | –
33 | CC1CCOc2cc(-c3ccc(F)cc3)nn21 (centres unmarked) [[VI-4], 2-(4-fluorophenyl)-7-methyl-6,7-dihydro-5H-pyrazolo[5,1-b][1,3]oxazine] | 2.65 | – | chromatographic logP [6]: 2.65
34 | O=C(Nc1cc(-c2c(-c3ccc(F)cc3)nn3c2OCCC3)ccn1)C1CCSCC1 [Example 128] | – | 1.83 | –
35 | CCC(=O)N(C)c1cc(-c2c(-c3ccc(F)cc3)nn3c2N(C(=O)CC)CCC3)ccn1 [Example 93] | – | – | LogP [4]: 2.05
36 | CC(=O)Nc1cc(-c2c(-c3ccc(F)cc3)nn3c2OCC(C)(C)C3)ccn1 [Example 109] | – | – | LogP [4]: 1.75
37 | Fc1ccc(-c2nn3ccoc3c2Br)cc1 [[IV-a-3], 7-bromo-6-(4-fluorophenyl)pyrazolo[5,1-b][1,3]oxazole] | 3.07 | – | chromatographic logP [3]: 3.07
38 | Fc1ccc(-c2cc3ncccn3n2)cc1 [[XXXVIII-1], 2-(4-Fluorophenyl)pyrazolo[1,5-a]pyrimidine] | 2.17 | – | –
39 | CC1(C(=O)Nc2cc(-c3c(-c4ccc(F)cc4)nn4c3OCCC4)ccn2)CC=CCC1 (centres unmarked) [Example 121] | – | 2.38 | –
40 | CC1(C)COc2cc(-c3ccc(F)cc3)nn2C1 [[VI-10], 2-(4-fluorophenyl)-6,6-dimethyl-6,7-dihydro-5H-pyrazolo[5,1-b][1,3]oxazine] | 2.96 | – | chromatographic logP [6]: 2.96
41 | O=C(Nc1cc(-c2c(-c3ccc(F)cc3)nn3c2OCCC3)ccn1)c1ccc(F)s1 [Example 130] | – | 2.42 | –
42 | CCC(=O)N1CCCn2nc(-c3ccc(F)cc3)c(-c3ccnc(N(C(C)=O)C(=O)CC)c3)c21 [Example 90] | – | – | LogP [4]: 2.39
43 | O=C(Nc1cc(-c2c(-c3ccc(F)cc3F)nn3c2OCCC3)ccn1)C1(Cl)CC1 [Example 50] | – | 2.84 | –
44 | CC1CCOc2c(Br)c(-c3ccc(F)cc3)nn21 (centres unmarked) [[IV-6], 3-bromo-2-(4-fluorophenyl)-7-methyl-6,7-dihydro-5H-pyrazolo[5,1-b][1,3]oxazine] | 3.36 | – | chromatographic logP [3]: 3.36
45 | CC(C)C(=O)Nc1cc(-c2c(-c3ccc(F)cc3)nn3c2OCC(C)(C#N)C3)ccn1 (centres unmarked) [Example 107] | – | – | LogP [4]: 1.94
46 | Cc1occc1C(=O)Nc1cc(-c2c(-c3ccc(F)cc3)nn3c2OCCC3)ccn1 [Example 126] | – | 1.96 | –
47 | Fc1ccc(-c2nn3c(c2Br)OCCC3)c(F)c1 [[IV-3], 3-bromo-2-(2,4-difluorophenyl)-6,7-dihydro-5H-pyrazolo[5,1-b][1,3]oxazine] | 2.7 | – | chromatographic logP [3]: 2.7
